Results from patent publication US9549886B2, “Personal care formulations containing alkyl ketal esters and methods of manufacture” (SEGETIS, INC., priority 2010, dated 2017).
Where “and” joins values, the source holds several entries; their conditions need not be identical. Equal entries are not always repeated.

Experiments:
[1] = Solubility of active agents in neat alkyl ketal esters (dissolution, storage at room temperature); details: for % solids dissolved in Et-LGK with heat, no precipitation / % solids in Et-LGK that did not (completely) dissolve or precipitated at room temperature / % solids dissolved in Et-LGK at room temperature, no precipitation: solvent Et-LGK; for % solids dissolved in Et-LGK with heat, no precipitation: dissolved at 35-80° C.; for % solids dissolved in Et-LGK with heat, no precipitation / % solids dissolved in Et-LGK at room temperature, no precipitation: still soluble after storage at room temperature (24 hours to 5 days) where stated; for % solids in Et-LGK that did not (completely) dissolve or precipitated at room temperature: partially dissolved or precipitated on room temperature storage; for solubility in many alkyl ketal esters: such as ethyl-LGK and ethyl-LPK; for % solids dissolved in Bu-LGK at room temperature, no precipitation: still soluble after 24 hours / 1 day at room temperature; for % solids dissolved in Et-LPK at room temperature, no precipitation: still soluble after 24 hours / 1 day at room temperature where stated; for % solids dissolved in Et-LPK with heat, no precipitation: dissolved at 50-80° C. or with heat, still soluble after storage at room temperature (24 hours to 5 days); for % solids dissolved in Bu-LGK with heat, no precipitation: dissolved at 50-80° C., still soluble after 24 hours at room temperature where stated
[2] = Three-component miscibility test (mixing in a vial at room temperature and shaking, visual clarity)
From the text: The term “miscible” and its variations (“miscibility”, “compatibility”, and the like) are used herein as a synonym for “soluble”, i.e., a mixture of the materials by themselves form a “true” solution, in which one material is molecularly dispersed in the other, or in which one material is dispersed as droplets which have a longest dimension of less than 200 nm, such that the mixture is optically clear. […] A fully miscible alkyl ketal ester is soluble in another material, such as water, at all proportions from 99:1 to 1:99. A partially miscible alkyl ketal ester is immiscible in another material in proportions from greater than 30 parts of the alkyl ketal ester in 70 parts or less of the other material and miscible in other combinations. A sparingly miscible alkyl ketal ester is immiscible in another material or miscible in another material to the extent of less than 10 parts in 90 parts of the other material. […] Unless stated otherwise, miscibility is assessed at 25° C. […] By “macroscopically uniform,” it is meant that the formulation is uniform when viewed at a length scale of at least 10 micrometers.
In these tests, clear mixtures as observed without magnification from a distance of, e.g., 0.3 meters are considered to be “miscible,” whereas cloudy or phase separated mixtures are considered to be “immiscible.” […]
Three-component mixtures of ethyl-LGK, ethanol, and avobenzone were prepared by mixing the materials at various proportions at room temperature in a vial and shaking. […]
Three-component mixtures of ethyl-LGK, water, and oxybenzone were prepared by mixing the materials at various proportions at room temperature in a vial and shaking. […]
Three-component mixtures of Et-LGK, water, and phenoxyethanol were prepared by mixing the materials at various proportions at room temperature in a vial and shaking.
Three-component mixtures of N,N-diethyl-m-toluamide (DEET), ethyl-LGK, and water were prepared by mixing the materials at various proportions at room temperature in a vial and shaking.

[3] = Miscibility of alkyl ketal esters with water and organic compounds; format: physicochemical; details: 25° C. unless stated otherwise
Procedure: Unless stated otherwise, miscibility is assessed at 25° C.

SMILES: O=C(OOC(=O)c1ccccc1)c1ccccc1 [Benzoyl peroxide]
- % solids dissolved in Et-LGK with heat, no precipitation [1]: 5%
- % solids in Et-LGK that did not (completely) dissolve or precipitated at room temperature ([1]; insoluble): 9.5%
- solubility in many alkyl ketal esters [1]: lower solubilities

SMILES: CCCCCCC(O)CO (stereo not shown) [Caprylyl glycol]
- % solids dissolved in Et-LGK at room temperature, no precipitation [1]: 15% and 20.8%

SMILES: COC1=C(OC)C(=O)C(C/C=C(\C)CC/C=C(\C)CC/C=C(\C)CC/C=C(\C)CC/C=C(\C)CC/C=C(\C)CC/C=C(\C)CC/C=C(\C)CC/C=C(\C)CCC=C(C)C)=C(C)C1=O [Coenzyme Q10, Ubiquinone]
- % solids in Bu-LGK that did not (completely) dissolve ([1]; solvent Bu-LGK, insoluble, dispersion or partially dissolved): 5%
- % solids in Et-LGK that did not (completely) dissolve or precipitated at room temperature ([1]; insoluble): 3.7%

SMILES: CCN(CC)C(=O)c1cccc(C)c1 [DEET, N,N-diethyl-m-toluamide]
- solubility in ethanol and ethyl-LPK [2]: soluble
- clarity of DEET / ethyl-LGK / water mixture ([2]; 26.7 parts of DEET, 60.5 parts of ethyl-LGK, 12.8 parts of water, room temperature): clear mixture
- 50/50 mixture with Et-LGK ([1]; room temperature where stated): miscible
- 50/50 mixture with Et-LPK ([1]; room temperature where stated): miscible

SMILES: COc1cc2c(cc1O)CCC(C)(C)O2 [Dimethylmethoxy Chromanol]
- % solids dissolved in Bu-LGK at room temperature, no precipitation ([1]; solvent Bu-LGK): 2.5%
- % solids dissolved in Et-LGK at room temperature, no precipitation [1]: 2.5%
- % solids dissolved in Et-LPK at room temperature, no precipitation ([1]; solvent Et-LPK): 2.5%

SMILES: O=C(CO)[C@H](O)CO [Erythrulose]
- mixture with Bu-LGK at a ratio of 10/90 ([1]; room temperature): separated into distinct phases
- mixture with Et-LPK at a ratio of 10/90 ([1]; room temperature): separated into distinct phases
- mixture with Et-LGK at a ratio of 10/90 ([1]; room temperature, still soluble after 24 hours): clear uniform solution

SMILES: CCOC(=O)CC1(C)OCC(CO)O1 (stereo not shown) [Et-AcAcGK]
- Result (miscibility of ketal with water) ([2]; 50.0% ketal / 50.0% water, no oxybenzone): Miscible
- miscible with water [3]: in all proportions

SMILES: Oc1ccc(O)cc1 [Hydroquinone]
- % solids dissolved in Et-LGK with heat, no precipitation [1]: 5%
- % solids dissolved in Et-LPK with heat, no precipitation ([1]; solvent Et-LPK): 10%

SMILES: COC(=O)CC1(C)OCC(CO)O1 (stereo not shown) [Me-AcAcGK]
- miscible with water [3]: in all proportions

SMILES: Oc1ccc(C=Cc2cc(O)cc(O)c2)cc1 [Resveratrol]
- % solids dissolved in Bu-LGK with heat, no precipitation ([1]; solvent Bu-LGK): 0.5%
- % solids dissolved in Et-LGK at room temperature, no precipitation [1]: 1%
- % solids dissolved in Et-LPK with heat, no precipitation ([1]; solvent Et-LPK): 0.5%
- solubility in many alkyl ketal esters [1]: lower solubilities

SMILES: CC1=C(/C=C/C(C)=C/C=C/C(C)=C/C(=O)O)C(C)(C)CCC1 [Retinoic acid]
- % solids soluble in Et-LPK at 80° C. ([1]; solvent Et-LPK, 80° C.): 1.88%
- solubility in many alkyl ketal esters [1]: lower solubilities

SMILES: COc1cc(CCC(=O)CC(=O)CCc2ccc(O)c(OC)c2)ccc1O [Tetrahydrocurcuminoids, tetrahydrodiferuloylmethane]
- % solids dissolved in Bu-LGK with heat, no precipitation ([1]; solvent Bu-LGK): 5%
- % solids dissolved in Et-LGK at room temperature, no precipitation [1]: 20%
- % solids dissolved in Et-LPK with heat, no precipitation ([1]; solvent Et-LPK): 5%

SMILES: O=C(CCCCc1ccc2c(c1)OCO2)N1CCCCC1 [Tetrahydropiperine]
- % solids dissolved in Bu-LGK at room temperature, no precipitation ([1]; solvent Bu-LGK): 20%
- % solids dissolved in Et-LGK at room temperature, no precipitation [1]: 20%
- % solids dissolved in Et-LPK at room temperature, no precipitation ([1]; solvent Et-LPK): 20%

SMILES: CCOC(=O)CCC1(C)OCCO1 [ethyl-LEK]
- miscible in water to the extent of [3]: 5 parts per 95 parts of water by weight
